Test results from ChEMBL document CHEMBL2074536, “Characterization of stably transfected kidney epithelial cell line expressing rat H+/peptide cotransporter PEPT1: localization of PEPT1 and transport of beta-lactam antibiotics” (J Pharmacol Exp Ther, 1997).
Where a SMILES comes first, the peptide text is derived from it.

Columns and labels:
Assay type in all cases: functional, cell-based
[1] = target: T1, Solute carrier family 15 member 1 (Rattus norvegicus) (UniProt P51574); test: TP_TRANSPORTER: inhibition of Ceftibuten uptake (Ceftibuten: 1000 uM, Gly-Sar: 10000 uM) in PEPT1-expressing LLC-PK1 cells
T1 sequence (whole entry): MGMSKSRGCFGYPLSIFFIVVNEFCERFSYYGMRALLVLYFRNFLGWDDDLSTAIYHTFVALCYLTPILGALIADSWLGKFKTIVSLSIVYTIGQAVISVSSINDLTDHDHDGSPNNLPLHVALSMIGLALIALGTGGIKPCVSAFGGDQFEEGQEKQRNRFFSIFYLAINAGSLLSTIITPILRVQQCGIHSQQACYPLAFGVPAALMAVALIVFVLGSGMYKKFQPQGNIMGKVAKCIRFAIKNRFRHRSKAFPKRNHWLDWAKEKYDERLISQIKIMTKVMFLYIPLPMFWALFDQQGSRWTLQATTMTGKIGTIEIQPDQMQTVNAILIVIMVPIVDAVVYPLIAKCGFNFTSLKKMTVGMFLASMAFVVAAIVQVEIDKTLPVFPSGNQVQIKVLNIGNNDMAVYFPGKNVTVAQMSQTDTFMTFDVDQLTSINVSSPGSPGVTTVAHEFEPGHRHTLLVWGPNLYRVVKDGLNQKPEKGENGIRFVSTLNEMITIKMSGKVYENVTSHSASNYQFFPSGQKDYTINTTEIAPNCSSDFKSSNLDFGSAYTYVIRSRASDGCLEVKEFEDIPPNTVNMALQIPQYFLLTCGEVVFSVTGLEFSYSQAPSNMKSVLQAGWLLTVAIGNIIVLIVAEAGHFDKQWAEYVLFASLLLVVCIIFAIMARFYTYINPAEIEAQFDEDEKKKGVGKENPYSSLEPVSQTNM

[2] = target: T1, Solute carrier family 15 member 1 (Rattus norvegicus); test: TP_TRANSPORTER: inhibition of Cephradine uptake (Cephradine: 1000 uM, Gly-Sar: 10000 uM) in PEPT1-expressing LLC-PK1 cells
[3] = target: T1, Solute carrier family 15 member 1 (Rattus norvegicus); test: TP_TRANSPORTER: inhibition of Ceftibuten uptake (Ceftibuten: 1000 uM, Cefixime: 10000 uM) in PEPT1-expressing LLC-PK1 cells
[4] = target: T1, Solute carrier family 15 member 1 (Rattus norvegicus); test: TP_TRANSPORTER: inhibition of Cephradine uptake (Cephradine: 1000 uM, Ceftibuten: 5000 uM) in PEPT1-expressing LLC-PK1 cells
[5] = target: T1, Solute carrier family 15 member 1 (Rattus norvegicus); test: TP_TRANSPORTER: inhibition of Cephradine uptake (Cephradine: 1000 uM, Bestatin: 10000 uM) in PEPT1-expressing LLC-PK1 cells
[6] = target: T1, Solute carrier family 15 member 1 (Rattus norvegicus); test: (§1) TP_TRANSPORTER: uptake in PEPT1-expressing LLC-PK1 cells
[7] = target: T1, Solute carrier family 15 member 1 (Rattus norvegicus); test: TP_TRANSPORTER: inhibition of Ceftibuten uptake (Ceftibuten: 1000 uM, Bestatin: 10000 uM) in PEPT1-expressing LLC-PK1 cells
[8] = target: T1, Solute carrier family 15 member 1 (Rattus norvegicus); test: TP_TRANSPORTER: inhibition of Cephradine uptake (Cephradine: 1000 uM, Gly-Gly-Phe: 10000 uM) in PEPT1-expressing LLC-PK1 cells
[9] = target: T1, Solute carrier family 15 member 1 (Rattus norvegicus); test: TP_TRANSPORTER: inhibition of Ceftibuten uptake (Ceftibuten: 1000 uM, Gly-Gly-Phe: 10000 uM) in PEPT1-expressing LLC-PK1 cells
[10] = target: T1, Solute carrier family 15 member 1 (Rattus norvegicus); test: TP_TRANSPORTER: inhibition of Ceftibuten uptake (Ceftibuten: 1000 uM, Gly-Leu: 10000 uM) in PEPT1-expressing LLC-PK1 cells
[11] = target: T1, Solute carrier family 15 member 1 (Rattus norvegicus); test: TP_TRANSPORTER: inhibition of Cephradine uptake (Cephradine: 1000 uM, Gly-Leu: 10000 uM) in PEPT1-expressing LLC-PK1 cells
[12] = substrate: CC1=C(C(=O)O)N2C(=O)[C@@H](NC(=O)[C@H](N)C3=CCC=CC3)[C@H]2SC1; test: as §1
[13] = substrate: Nc1nc(/C(=C/CC(=O)O)C(=O)N[C@@H]2C(=O)N3C(C(=O)O)=CCS[C@H]23)cs1; test: as §1

In the case of `CN(CC(=O)O)C(=O)CN` (HELM PEPTIDE1{G.[Sar]}$$$$V2.0), the Activity [1] is reported as “inhibitor [+]” and the Activity [2] is reported as “inhibitor [+]”.

With `C=CC1=C(C(=O)O)N2C(=O)[C@@H](NC(=O)/C(=N\OCC(=O)O)c3csc(N)n3)[C@H]2SC1` the Activity [3] was “inhibitor [+]”.

`Nc1nc(/C(=C/CC(=O)O)C(=O)N[C@@H]2C(=O)N3C(C(=O)O)=CCS[C@H]23)cs1` was tested, and the Activity [4] was “inhibitor [+]”.

With `CC(C)C[C@H](NC(=O)[C@@H](O)[C@H](N)Cc1ccccc1)C(=O)O` the Activity [5] was “inhibitor [+]”, the Activity [6] was “substrate [+]” and the Activity [7] was “inhibitor [+]”.

In the case of `NCC(=O)NCC(=O)N[C@@H](Cc1ccccc1)C(=O)O` (H-Gly-Gly-Phe-OH), the Activity [8] is reported as “inhibitor [+]” and the Activity [9] is reported as “inhibitor [+]”.

With `CC(C)C[C@H](NC(=O)CN)C(=O)O` the Activity [10] was “inhibitor [+]” and the Activity [11] was “inhibitor [+]”.

B1: Solute carrier family 15 member 1 (Rattus norvegicus), P51574 (protein)
chain: MGMSKSRGCFGYPLSIFFIVVNEFCERFSYYGMRALLVLYFRNFLGWDDDLSTAIYHTFVALCYLTPILGALIADSWLGKFKTIVSLSIVYTIGQAVISVSSINDLTDHDHDGSPNNLPLHVALSMIGLALIALGTGGIKPCVSAFGGDQFEEGQEKQRNRFFSIFYLAINAGSLLSTIITPILRVQQCGIHSQQACYPLAFGVPAALMAVALIVFVLGSGMYKKFQPQGNIMGKVAKCIRFAIKNRFRHRSKAFPKRNHWLDWAKEKYDERLISQIKIMTKVMFLYIPLPMFWALFDQQGSRWTLQATTMTGKIGTIEIQPDQMQTVNAILIVIMVPIVDAVVYPLIAKCGFNFTSLKKMTVGMFLASMAFVVAAIVQVEIDKTLPVFPSGNQVQIKVLNIGNNDMAVYFPGKNVTVAQMSQTDTFMTFDVDQLTSINVSSPGSPGVTTVAHEFEPGHRHTLLVWGPNLYRVVKDGLNQKPEKGENGIRFVSTLNEMITIKMSGKVYENVTSHSASNYQFFPSGQKDYTINTTEIAPNCSSDFKSSNLDFGSAYTYVIRSRASDGCLEVKEFEDIPPNTVNMALQIPQYFLLTCGEVVFSVTGLEFSYSQAPSNMKSVLQAGWLLTVAIGNIIVLIVAEAGHFDKQWAEYVLFASLLLVVCIIFAIMARFYTYINPAEIEAQFDEDEKKKGVGKENPYSSLEPVSQTNM
B1 was tested, and the Km [12] was 8.2 mM and the Km [13] was 1.5 mM.
